Data published in patent US20230357162A1, “COMPOUNDS, COMPOSITIONS AND METHODS” (Denali Therapeutics Inc., priority 2020, published 2023).
pIC50: −log10 of the molar value. Structures can show the parent of a compound that is named as a salt.

Test system: IL-1β secretion, THP-1 cells
Experiment: IL-1β secretion assay in PMA-differentiated THP-1 cells stimulated with LPS and nigericin (ELISA readout)
Format: cell-based
Conditions: Homo sapiens, THP-1, inhibition of IL-1β secretion, 25 ng/mL LPS then nigericin
Procedure, shortened: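 THP-1 cells differentiated with 5 ng/mL PMA for 40 h, primed in serum-free medium with 25 ng/mL LPS for 2 h, then compound (0.5% DMSO) for 1 h before nigericin for 2 h at 37°C. Supernatant IL-1β quantified by ELISA; normalized to high (LPS + 5 µM nigericin) and low (LPS only) controls.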

SMILES	pIC50 (class column of Table 3)	pIC50 (numeric column of Table 3)
COc1nn(CC(=O)Nc2ncc(F)cn2)c(=O)c2ccc(Br)c(F)c12 [Example 140, 2-(6-bromo-5-fluoro-4-methoxy-1-oxophthalazin-2-yl)-N-(5-fluoropyrimidin-2-yl)acetamide]	> 5.00	7.06
COc1c(Br)ccc2c(=O)n(CC(=O)Nc3ncc(F)cn3)nc(Cl)c12 [Example 141, 2-(6-bromo-4-chloro-5-methoxy-1-oxophthalazin-2-yl)-N-(5-fluoropyrimidin-2-yl)acetamide]	> 5.00	5.92
O=C(Cn1nc(CF)c2cc(Br)ccc2c1=O)Nc1ncc(F)cn1 [Example 142, 2-[6-bromo-4-(fluoromethyl)-1-oxophthalazin-2-yl]-N-(5-fluoropyrimidin-2-yl)acetamide]	> 5.00	7.04
O=C(Cn1nc(CF)c2ccc(Br)cc2c1=O)Nc1ncc(F)cn1 [Example 143, 2-[7-bromo-4-(fluoromethyl)-1-oxophthalazin-2-yl]-N-(5-fluoropyrimidin-2-yl)acetamide]	> 5.00	5.61
CC(F)c1nn(CC(=O)Nc2ncc(F)cn2)c(=O)c2ccc(Br)c(F)c12 (stereo not drawn) [Example 144, 2-[6-bromo-5-fluoro-4-(1-fluoroethyl)-1-oxophthalazin-2-yl]-N-(5-fluoropyrimidin-2-yl)acetamide]	> 5.00	6.72
Cc1nn(CC(=O)Nc2ncc(F)cn2)c(=O)c2ccc(Br)c(F)c12 [Example 145]	> 5.00	6.76
COc1nn(CC(=O)Nc2ncc(F)cn2)c(=O)c2ccc(C(F)(F)F)cc12 [Example 146, N-(5-fluoropyrimidin-2-yl)-2-[4-methoxy-1-oxo-6-(trifluoromethyl)phthalazin-2-yl]acetamide]	> 5.00	6.34
O=C(Cn1nc(CF)c2cc(C(F)(F)F)ccc2c1=O)Nc1ncc(F)cn1 [Example 147, 2-[4-(fluoromethyl)-1-oxo-6-(trifluoromethyl)phthalazin-2-yl]-N-(5-fluoropyrimidin-2-yl)acetamide]	> 5.00	6.55
O=C(Cn1nc(CF)c2c(F)c(Br)ccc2c1=O)Nc1ncc(F)cn1 [Example 148, 2-[6-bromo-5-fluoro-4-(fluoromethyl)-1-oxophthalazin-2-yl]-N-(5-fluoropyrimidin-2-yl)acetamide]	> 5.00	7.01
CSc1nn(CC(=O)Nc2ncc(F)cn2)c(=O)c2ccc(Br)cc12 [Example 149, 2-(6-bromo-4-methylsulfanyl-1-oxophthalazin-2-yl)-N-(5-fluoropyrimidin-2-yl)acetamide]	> 5.00	6.11
O=C(Cn1nc(OC2CC2)c2cc(Br)ccc2c1=O)Nc1ncc(F)cn1 [Example 150, 2-(6-bromo-4-cyclopropyloxy-1-oxophthalazin-2-yl)-N-(5-fluoropyrimidin-2-yl)acetamide]	> 5.00	6.90
N#Cc1cnc(NC(=O)Cn2nc(OC3CC3)c3cc(Br)ccc3c2=O)c(F)c1 [Example 151]	> 5.00	6.31
Cc1cnc(NC(=O)Cn2nc(OC3CC3)c3cc(Br)ccc3c2=O)nc1 [Example 152]	> 5.00	6.76
O=C(Cn1nc(OC2CCC2)c2cc(Br)ccc2c1=O)Nc1ncc(F)cn1 [Example 153, 2-(6-bromo-4-cyclobutyloxy-1-oxophthalazin-2-yl)-N-(5-fluoropyrimidin-2-yl)acetamide]	> 5.00	6.83
CCOc1nn(CC(=O)Nc2ncc(F)cn2)c(=O)c2ccc(Br)cc12 [Example 154, 2-(6-bromo-4-ethoxy-1-oxophthalazin-2-yl)-N-(5-fluoropyrimidin-2-yl)acetamide]	> 5.00	6.17
CC(C)Oc1nn(CC(=O)Nc2ncc(F)cn2)c(=O)c2ccc(Br)cc12 [Example 155, 2-(6-bromo-1-oxo-4-propan-2-yloxyphthalazin-2-yl)-N-(5-fluoropyrimidin-2-yl)acetamide]	> 5.00	5.23
CC1(C)CC(Oc2nn(CC(=O)Nc3ncc(F)cn3)c(=O)c3ccc(Br)cc23)C1 [Example 156, 2-[6-bromo-4-(3,3-dimethylcyclobutoxy)-1-oxo-phthalazin-2-yl]-N-(5-fluoropyrimidin-2-yl)acetamide]	> 5.00	7.15
C[C@H]1C[C@@H](Oc2nn(CC(=O)Nc3ncc(F)cn3)c(=O)c3ccc(Br)cc23)C1 [Example 157, 2-[6-bromo-4-(3-cis-methylcyclobutoxy)-1-oxo-phthalazin-2-yl]-N-(5-fluoropyrimidin-2-yl)acetamide]	> 5.00	6.86
C[C@H]1C[C@H](Oc2nn(CC(=O)Nc3ncc(F)cn3)c(=O)c3ccc(Br)cc23)C1 [Example 158, 2-[6-bromo-4-(3-trans-methylcyclobutoxy)-1-oxo-phthalazin-2-yl]-N-(5-fluoropyrimidin-2-yl)acetamide]	> 5.00	6.51
CCN1CCOCC(NC(=O)Cn2nc(C(C)C)c3cc(Br)ccc3c2=O)C1 (stereo not drawn) [Example 159, 2-(6-bromo-1-oxo-4-propan-2-ylphthalazin-2-yl)-N-(4-ethyl-1,4-oxazepan-6-yl)acetamide]	> 5.00	5.32

SMILES	pIC50 (class column of Table 3)	pIC50 (numeric column of Table 3)
CO[C@H]1C[C@H](Oc2nn(CC(=O)Nc3ncc(F)cn3)c(=O)c3ccc(Br)cc23)C1 [Example 160]	> 5.00	5.88
O=C(Cn1nc(OC2COC2)c2cc(Br)ccc2c1=O)Nc1ncc(F)cn1 [Example 161]	> 5.00	5.44
CC(F)COc1nn(CC(=O)Nc2ncc(F)cn2)c(=O)c2ccc(Br)cc12 (stereo not drawn) [Example 162]	> 5.00	6.34
COCCOc1nn(CC(=O)Nc2ncc(F)cn2)c(=O)c2ccc(Br)cc12 [Example 163]	> 5.00	5.42
O=C(Cn1nc(C2CC2)c2cc(Br)ccc2c1=O)Nc1ncc(F)cn1 [Example 164, 2-(6-bromo-4-cyclopropyl-1-oxophthalazin-2-yl)-N-(5-fluoropyrimidin-2-yl)acetamide]	> 5.00	6.83
O=C(Cn1nc([C@H]2C[C@@H]2F)c2cc(Br)ccc2c1=O)Nc1ncc(F)cn1 [Example 167, 2-[6-bromo-4-[2-trans-fluorocyclopropyl]-1-oxophthalazin-2-yl]-N-(5-fluoropyrimidin-2-yl)acetamide]	< 4.82	4.79
O=C(Cn1nc(OC(F)C2CC2)c2cc(Br)ccc2c1=O)Nc1ncc(F)cn1 (stereo not drawn) [Example 168, 2-[6-bromo-4-[cyclopropyl(fluoro)methoxy]-1-oxophthalazin-2-yl]-N-(5-fluoropyrimidin-2-yl)acetamide]	< 4.82	4.77
CC(Oc1nn(CC(=O)Nc2ncc(F)cn2)c(=O)c2ccc(Br)cc12)C1CC1 (stereo not drawn) [Example 169]	> 5.00	5.64
O=C(Cn1nc(OC2CN(CC(F)(F)F)C2)c2cc(Br)ccc2c1=O)Nc1ncc(F)cn1 [Example 170, 2-[6-bromo-1-oxo-4-[1-(2,2,2-trifluoroethyl)azetidin-3-yl]oxyphthalazin-2-yl]-N-(5-fluoropyrimidin-2-yl)acetamide]	> 5.00	6.31
N#C[C@H]1C[C@@H](Oc2nn(CC(=O)Nc3ncc(F)cn3)c(=O)c3ccc(Br)cc23)C1 [Example 171, 2-[6-bromo-4-(3-cis-cyanocyclobutyl)oxy-1-oxophthalazin-2-yl]-N-(5-fluoropyrimidin-2-yl)acetamide]	> 5.00	5.23
CO[C@H]1C[C@@H](Oc2nn(CC(=O)Nc3ncc(F)cn3)c(=O)c3ccc(Br)cc23)C1 [Example 172, 2-[6-bromo-4-(3-cis-methoxycyclobutyl)oxy-1-oxophthalazin-2-yl]-N-(5-fluoropyrimidin-2-yl)acetamide]	> 5.00	6.39
O=C(Cn1nc(OC2CC2)c2cc(C3CC3)ccc2c1=O)Nc1ncc(F)cn1 [Example 173, 2-(6-cyclopropyl-4-cyclopropyloxy-1-oxophthalazin-2-yl)-N-(5-fluoropyrimidin-2-yl)acetamide]	> 5.00	6.92
O=C(Cn1nc(OC2CC2)c2cc(C(F)(F)F)ccc2c1=O)Nc1ncc(F)cn1 [Example 174, 2-(4-cyclopropoxy-1-oxo-6-(trifluoromethyl)phthalazin-2(1H)-yl)-N-(5-fluoropyrimidin-2-yl)acetamide]	> 5.00	6.29
CC(C)(C)OC(=O)N1CCC[C@@H](NC(=O)Cn2nc(OC3CC3)c3cc(Br)ccc3c2=O)C1 [Example 175, tert-butyl (3R)-3-[[2-(6-bromo-4-cyclopropyloxy-1-oxophthalazin-2-yl)acetyl]amino]piperidine-1-carboxylate]	> 5.00	5.06
O=C(Cn1nc(OC2CC2)c2cc(Br)ccc2c1=O)N[C@@H]1CCCNC1 [Example 176, 2-(6-bromo-4-cyclopropyloxy-1-oxophthalazin-2-yl)-N-[(3R)-piperidin-3-yl]acetamide HCl salt]	> 5.00	5.37
O=C(Cn1nc(OC2CC2)c2cc(Br)ccc2c1=O)N[C@@H]1CCCN(C2CCC2)C1 [Example 177]	> 5.00	6.67
O=C(Cn1nc(OC2CC2)c2cc(Br)ccc2c1=O)N[C@@H]1CCCN(C2CC2)C1 [Example 178]	> 5.00	6.85
O=C(Cn1nc(C(F)F)c2cc(Br)ccc2c1=S)Nc1ncc(F)cn1 [Example 179, 2-[6-bromo-4-(difluoromethyl)-1-thioxophthalazin-2-yl]-N-(5-fluoropyrimidin-2-yl)acetamide]	> 5.00	6.31
CN(C)c1ccc2c(=O)n(CC(=O)Nc3ncc(F)cn3)nc(Br)c2c1 [Example 180, 2-[4-bromo-6-(dimethylamino)-1-oxophthalazin-2-yl]-N-(5-fluoropyrimidin-2-yl)acetamide]	> 5.00	5.31
